Measurements taken from ChEMBL document CHEMBL4411271, “New Generation of Selective Androgen Receptor Degraders: Our Initial Design, Synthesis, and Biological Evaluation of New Compounds with Enzalutamide-Resistant Prostate Cancer Activity” (J Med Chem, 2019).

How the values were obtained:
MR49F = experiment: animal or person; format: functional; conditions: Homo sapiens, po, 336 h, read-out: TGI
Description: Antitumor activity against human MR49F cells xenografted in NSG cells assessed as tumor growth inhibition at 100 mg/kg/day, po for 14 days and measured twice weekly relative to control

in vitro = conditions: mouse, microsomes
Description: Half life in mouse liver microsomes at 50 uM in presence of cofactors for phase 1 and 2 metabolism

[1] = mouse, microsomes, 50 µM

`C[C@](O)(Cn1ccc2cc(F)c(-c3ccccc3)cc21)C(=O)Nc1ccc(C#N)c(Cl)c1` showed an inhibition in vivo at 100 mg/kg/day (MR49F) of 40 to 60%.

For `C[C@](O)(Cn1ccc2c(F)cccc21)C(=O)Nc1ccc(C#N)c(Cl)c1`, the inhibition in vivo at 100 mg/kg/day (MR49F) was 40 to 60%.

With `C[C@](O)(CN1CCc2cc(F)ccc21)C(=O)Nc1ccc(C#N)c(Cl)c1` the half-life at 50 µM (in vitro) was 9.16 min.

`C[C@](O)(COc1ccc(C#N)cc1)C(=O)Nc1ccc(C#N)c(C(F)(F)F)c1` [ENOBOSARM] showed a CLH [1] of 1400 µL/min/mg.
